Measurements published in ChEMBL document CHEMBL5614376, “Discovery of MT-1207: A Novel, Potent Multitarget Inhibitor as a Promising Clinical Candidate for the Treatment of Hypertension” (J Med Chem, 2024).

Assays:
Type in all cases: functional
Rattus norvegicus [1] = assay: Effect on postural hypotension in Sprague-Dawley rat assessed as change in systolic blood pressure at 22 ug/kg, po treated for >30 mins followed by induction of postural hypotension measured 10 secs after postural change (reference value: 127 +/- 12 mmHg); details: dose 22 µg/kg, time > 30.17 min, 0.5028 h
Rattus norvegicus [2] = assay: Effect on postural hypotension in Sprague-Dawley rat assessed as change in systolic blood pressure at 22 ug/kg, po treated for >30 mins followed by induction of postural hypotension measured 3 secs after postural change (reference value: 124 +/- 10 mmHg); details: dose 22 µg/kg, time > 30.05 min, 0.5008 h
Rattus norvegicus [3] = assay: Effect on postural hypotension in Sprague-Dawley rat assessed as change in systolic blood pressure at 22 ug/kg, po treated for >30 mins followed by induction of postural hypotension measured 20 secs after postural change (reference value: 129 +/- 11 mmHg); details: dose 22 µg/kg, time > 30.33 min, 0.5055 h
Rattus norvegicus [4] = assay: Effect on postural hypotension in Sprague-Dawley rat assessed as change in systolic blood pressure at 22 ug/kg, po treated for >30 mins followed by induction of postural hypotension measured 40 secs after postural change (reference value: 128 +/- 11 mmHg); details: dose 22 µg/kg, time > 30.67 min, 0.5112 h
Rattus norvegicus [5] = assay: Effect on postural hypotension in Sprague-Dawley rat assessed as change in systolic blood pressure at 22 ug/kg, po treated for >30 mins followed by induction of postural hypotension measured 60 secs after postural change (reference value: 127 +/- 10 mmHg); details: dose 22 µg/kg, time > 31 min
Rattus norvegicus [6] = assay: Effect on postural hypotension in Sprague-Dawley rat assessed as change in systolic blood pressure at 22 ug/kg, po treated for >30 mins followed by induction of postural hypotension measured immediately after postural change (reference value: 131 +/- 9 mmHg); details: dose 22 µg/kg, 0.5 h
Rattus norvegicus [7] = assay: Effect on postural hypotension in Sprague-Dawley rat assessed as change in systolic blood pressure at 22 ug/kg, po treated for >30 mins followed by induction of postural hypotension measured 5 secs after postural change (reference value: 126 +/- 12 mmHg); details: dose 22 µg/kg, time > 30.08 min, 0.5013 h

COc1cc2nc(N3CCN(C(=O)c4ccco4)CC3)nc(N)c2cc1OC [PRAZOSIN]
Activity (Rattus norvegicus [1]): 75 mmHg | Activity (Rattus norvegicus [2]): 81 mmHg | Activity (Rattus norvegicus [3]): 75 mmHg | Activity (Rattus norvegicus [4]): 74 mmHg | Activity (Rattus norvegicus [5]): 74 mmHg | Activity (Rattus norvegicus [6]): 95 mmHg | Activity (Rattus norvegicus [7]): 77 mmHg
